Peptide text beside a SMILES is read from it.
Experiments:
[1] = tested on: model of middle cerebral artery occlusion and subsequent reperfusion (cerebral ischemic injury); assay: Infarction rate and cerebral edema rate in model of middle cerebral artery occlusion and subsequent reperfusion (Test Example 5); type: in vivo, Wistar male rats; details: Production Example 4 injection (0.64 mol/L), caudal vein 60 mL/kg/hr for 10 minutes, immediately after and 6 hours after reperfusion; 120 min occlusion; 24 hours after reperfusion; FIG. 2
Source text: Approximately 7-week-old Wistar male rats were used. The method of Koizumi et al. (Nou-socchu (Cerebral Apoplexy), Vol. 8, pp. 1-8, 1986) was applied to the rats under halothane anesthesia, so as to produce models of middle cerebral artery occlusion and subsequent reperfusion. Specifically, each rat was fixed under natural aspiration conditions under anesthesia with gas (initial anesthesia: performed in room air containing 3% halothane; continuous anesthesia: performed in room air containing 1% halothane), and the neck of the rat was then subjected to median incision. […]
On the day after the administration of the agent (24 hours after cerebral ischemia-reperfusion), a test animal was anesthetized with ether, and the brain was then excised. […] A slice of brain section was placed, with a surface to be measured down, into each well of a 12-well plate, which had been filled with a 2% TTC solution prepared by dissolving 2,3,5-triphenyltetrazolium chloride (TTC) in a phosphate buffered saline. […] Thus, the area of an infarct on the measurement surface of each brain section (the site in which brain tissue was considered to be necrosed) was measured, and the obtained value was then multiplied by the thickness of the brain section, so as to obtain the volume of an infarct in each brain section. […]

[2] = Solubility in water at 25° C.; type: physicochemical
[3] = tested on: Wistar male rats; assay: Identification of side effects after intravenous administration (Test Example 2); details: rat, in vivo
Procedure: (§1) 7- to 9-week-old Wistar male rats were divided into the following 8 administration groups. The number of rats in each group was set at 4. […]
L-histidine hydrochloride was dissolved in water for injection purpose, and the obtained solution was then adjusted to pH 6.0 with a sodium hydroxide aqueous solution. The obtained injection solution (L-histidine concentration: 10% (W/V)) was administered into the caudal vein of each rat at a rate of 60 mL/kg/hr for 10 minutes.
(§2) L-histidine was added to water for injection purpose, and acetic acid was further added thereto, so as to dissolve L-histidine in the solution. The obtained solution was adjusted to pH 6.0 with a sodium hydroxide aqueous solution. The obtained injection solution (L-histidine concentration: 10% (W/V)) was administered into the caudal vein of each rat at a rate of 60 mL/kg/hr for 10 minutes.
as §2, with “citric” for “acetic”
β-alanyl-L-histidine was added to water for injection purpose, and the obtained solution was then adjusted to pH 7 with hydrochloric acid. The obtained injection solution (L-histidine concentration: 10% (W/V)) was administered into the caudal vein of each rat at a rate of 60 mL/kg/hr for 10 minutes. […]
(§3) After administration of the agent, blood was collected from each rat at regular time intervals, and the concentration of L-histidine (monomer) in blood was then measured using a high speed amino acid analyzer L-8800A (manufactured by Hitachi High-Technologies Corporation). […] In addition, the body temperature, blood pressure, and cardiac rate of each test animal were measured during the period from before administration of the agent until after the administration of the agent, and at the same time, the appearance of each test animal was observed, so as to examine the presence or absence of side effects caused by administration of the agent. The L-histidine concentration in blood was measured 15 minutes after the administration of the agent, and the presence or absence of side effects caused by such administration of the agent was examined.

[4] = L-histidine concentration in blood after intravenous administration (Test Example 2); details: male, Wistar, rat, in vivo, 15 min
Procedure: as §1
The therapeutic agent for cerebral ischemic injury obtained in Production Example 2 was diluted by a factor of 2, and the thus diluted solution was administered into the caudal vein of each rat at a rate of 60 mL/kg/hr for 10 minutes. […]
as §2
as §2, with “citric” for “acetic”, “minutes. […]” for “minutes.”
as §3

NCC(=O)N[C@@H](Cc1c[nH]cn1)C(=O)O [glycyl-L-histidine] (H-Gly-His-OH)
Cerebral edema rate compared with control group [1]: remarkably suppressed | Infarction rate compared with control group [1]: remarkably suppressed | solubility [2]: ≥ 3500 mM | Side effects [3]: None | L-histidine concentration in blood (mean value) [4]: 6.2 mM

From patent US20100323975A1, “THERAPEUTIC AGENT FOR CEREBRAL ISCHEMIC INJURY” (OTSUKA PHARMACEUTICAL FACTORY, INC., priority 2007, published 2010)
